This note sets out measurements from the NIST ThermoML archive (doi:10.1016/j.fluid.2012.01.022).

± gives the expanded uncertainty stated by the source.

The conditions of series [1]: Crystal; DTA.
Series [2] can be described thus: Molar enthalpy of transition or fusion. The note with it: Crystal; DSC.

Regarding `NNC(=O)c1ccncc1` [isonicotinic acid hydrazide], the Normal melting temperature in series [1] stood at 172.69 ± 1.1 °C. The “Molar enthalpy of transition or fusion” value in series [2] was determined as 6.67 ± 0.191 kcal/mol.
